# Source: patent US20130149721A1, “Methods for Inhibiting Amyloid Precursor Protein and Beta-Amyloid Production and Accumulation” (WISCONSIN ALUMNI RESEARCH FOUNDATION, priority 2008, published 2013)
# Legend:
# APP translation in SN = experiment: 35S-Met labeling and immunoprecipitation of newly synthesized APP in synaptoneurosomes; format: cell-based, mouse; conditions: WT SN, 40 μM anisomycin + 100 μM DHPG, 15 min
# Protocol: WT and KO SNs (450 μl) were mixed with 25 μl Redivue Pro-Mix-L [^35S] for 5 min prior to stimulation with 25 μl 2 mM DHPG. Samples were flash frozen at the indicated times. To analyze new protein synthesis, SN lysates were cleared of free isotope, Percoll®, and sucrose by purification with the PAGEprep Advance kit according to the manufacturer's directions. Protein concentrations were determined by the BCA assay, and 15 μg protein was denatured and loaded per lane on 12% SDS gels for content analysis. Gels were dried and exposed to a phosphorimager screen to identify the results of these assays.
# To specifically analyze APP synthesis, WT and KO SN lysates (500 μl) were immunoprecipitated with APP antibody. Briefly, SN lysates were precleared with protein A magnetic beads in 1 ml volumes containing 500 μl SNs, 500 μl 2×IP buffer (20 mM HEPES (pH 7.4), 400 mM NaCl, 60 mM EDTA (pH 8), and 2% Triton X-100), protease inhibitor cocktail, and 100 μl packed fresh protein A magnetic beads. For the immunoprecipitations, 10 μg anti-APP antibody (Zymed catalog number 51-2700) and fresh protein A magnetic beads were added and mixed overnight at 4° C. The beads were washed three times with IP buffer, and the final, washed pellets were suspended in 40 μl 2×SDS sample buffer and boiled for 5 min; the proteins were then separated on 12% SDS gels. The gels were transferred to a nitrocelluose membrane, dried, exposed to a phosphorimager screen, and scanned on a STORM 860 phosphorimager (Molecular Dynamics http://www6.amershambiosciences.com). APP bands at 120 kDa were quantitated with ImageQuant software (GE Healthcare Life Sciences, http://www4.amershambiosciences.com).
# For mGluR5 inhibitor studies, SNs (425 μl) were preincubated with 25 μl anisomycin (40 μM final concentration) or MPEP (10 μM final concentration) for 10 min prior to the addition of 25 μl ^35S-Met for 5 min and stimulation with DHPG (100 μM final concentration) for 15 min. Samples were processed as described in the preceding paragraph.
# To further assess FMRP regulation of APP levels in brain, cortical SN were prepared from WT mice and overall protein synthesis analyzed in response to DHPG (100 μM)-induced mGluR5 activation. SN were metabolically active as assessed by ^35S-Met incorporation. […]
# These conclusions were tested by assessing the effects on APP translation of contacting SN with a group 1 mGluR5 antagonist, 2-methyl-6-(phenylethynyl)-pyridine (MPEP). […] To assess the effect of MPEP, a specific mGluR5 antagonist, on DHPG stimulation of de novo APP synthesis, SN were pre-treated with 10 μM MPEP for 10 min prior to the addition of ^35S-Met for 5 min and stimulation with 100 μM DHPG for 15 min. ^35S-Met-labeled APP was immunoprecipitated with anti-APP antibodies and analyzed by SDS-PAGE. […]
# [1] = Tolerability of fenobam-supplemented diet in Tg2576 mice; format: in vivo
# Excerpt: (§1) Mice were fed a fenobam-supplemented mouse food that was a purified ingredient diet formulated by Research Diets, Inc. (New Brunswick, N.J.) to match Purina 5015 lab diet in protein, carbohydrate and fat calories. For chronic dosing, the diet was supplemented with 0.2 g fenobam per kg lab diet and colored red for visual differentiation with the placebo food.
# [2] = system: Aβ1-40 and Aβ1-42 in Tg2576 mouse brain; experiment: Brain Aβ ELISA after chronic fenobam-supplemented diet in Tg2576 mice; conditions: one month
# Protocol: FIG. 12 is a graph illustrating the effects of fenobam treatment in Tg2576 mice. Tg2576 mice were fed placebo or fenobam-supplemented lab diet for one month prior to harvesting brains for ELISA assays. For chronic dosing, the diet was supplemented with 0.2 g fenobam per kg lab diet and colored red for visual differentiation with the placebo food. Whole brain homogenates from control and fenobam-treated mice were analyzed by ELISA for Aβ1-40 (left) and Aβ1-42 (right). Data were plotted as ng/mL Aβ per μg soluble brain lysate. […] The left bar in each group represents Aβ levels in mice fed with placebo food; and the right bar in each group represents Aβ levels in mice fed with fenobam-supplemented food.
# as §1
# After one month of chronic fenobam dosing, brain tissue was harvested and Aβ levels measured. Specifically assessed by ELISA were human (expressed from the APPSwe transgene) and mouse (endogenous) Aβ1-40 and Aβ1-42 levels.
# rat mGluR1a = rat mGluR1a (Rattus norvegicus, UniProt P23385); conditions: doses up to 10 μm; cited from earlier work
# anxiety in humans = conditions: cited from earlier work
# rat mGluR4a = rat mGluR4a (Rattus norvegicus, UniProt P31423); conditions: doses up to 10 μm; cited from earlier work
# rat mGluR2 = rat mGluR2 (Rattus norvegicus, UniProt P31421); conditions: doses up to 10 μm; cited from earlier work
# [3] = system: audiogenic seizures in mice; experiment: Audiogenic seizure (AGS) testing; format: in vivo, mouse; conditions: treated (immunized or Purina + drug)
# [4] = system: Aβ1-40 and Aβ1-42 in Fmr-1 KO mouse brain; experiment: Brain region Aβ ELISA after fenobam-supplemented diet in Fmr-1 KO mice
# Protocol: Fmr-1 KO mice were fed placebo or fenobam-supplemented lab diet for two months prior to harvesting brains for ELISA assays. Homogenates of hippocampus (H), cortex (Cx) and cerebellum (Cb) were analyzed by ELISA for Aβ1-40 and Aβ1-42. Data were plotted as a percentage of Aβ compared to levels in control mouse hippocampus. C: control, F: Fenobam.
# Fmr-1 KO mice were fed placebo or fenobam-supplemented lab diet for one month prior to harvesting brains for ELISA assays. Homogenates of hippocampus (H), cortex (Cx) and cerebellum (Cb) were analyzed by ELISA for Aβ1-40 and Aβ1-42. Data were plotted as a percentage of Aβ compared to levels in control mouse hippocampus.
# [5] = humans, cited from earlier work
# mGluR5 = mGluR5 (Homo sapiens, UniProt P41594); conditions: shared allosteric modulatory site; cited from earlier work
# rat mGluR7a = rat mGluR7a (Rattus norvegicus, UniProt P35400); conditions: doses up to 10 μm; cited from earlier work
# anxiety in rats = conditions: cited from earlier work
# rat mGluR8a = rat mGluR8a (Rattus norvegicus, UniProt P70579); conditions: doses up to 10 μm; cited from earlier work
# anxiety in mice = conditions: cited from earlier work
# mGluR5, sequence (P41594 21-1212): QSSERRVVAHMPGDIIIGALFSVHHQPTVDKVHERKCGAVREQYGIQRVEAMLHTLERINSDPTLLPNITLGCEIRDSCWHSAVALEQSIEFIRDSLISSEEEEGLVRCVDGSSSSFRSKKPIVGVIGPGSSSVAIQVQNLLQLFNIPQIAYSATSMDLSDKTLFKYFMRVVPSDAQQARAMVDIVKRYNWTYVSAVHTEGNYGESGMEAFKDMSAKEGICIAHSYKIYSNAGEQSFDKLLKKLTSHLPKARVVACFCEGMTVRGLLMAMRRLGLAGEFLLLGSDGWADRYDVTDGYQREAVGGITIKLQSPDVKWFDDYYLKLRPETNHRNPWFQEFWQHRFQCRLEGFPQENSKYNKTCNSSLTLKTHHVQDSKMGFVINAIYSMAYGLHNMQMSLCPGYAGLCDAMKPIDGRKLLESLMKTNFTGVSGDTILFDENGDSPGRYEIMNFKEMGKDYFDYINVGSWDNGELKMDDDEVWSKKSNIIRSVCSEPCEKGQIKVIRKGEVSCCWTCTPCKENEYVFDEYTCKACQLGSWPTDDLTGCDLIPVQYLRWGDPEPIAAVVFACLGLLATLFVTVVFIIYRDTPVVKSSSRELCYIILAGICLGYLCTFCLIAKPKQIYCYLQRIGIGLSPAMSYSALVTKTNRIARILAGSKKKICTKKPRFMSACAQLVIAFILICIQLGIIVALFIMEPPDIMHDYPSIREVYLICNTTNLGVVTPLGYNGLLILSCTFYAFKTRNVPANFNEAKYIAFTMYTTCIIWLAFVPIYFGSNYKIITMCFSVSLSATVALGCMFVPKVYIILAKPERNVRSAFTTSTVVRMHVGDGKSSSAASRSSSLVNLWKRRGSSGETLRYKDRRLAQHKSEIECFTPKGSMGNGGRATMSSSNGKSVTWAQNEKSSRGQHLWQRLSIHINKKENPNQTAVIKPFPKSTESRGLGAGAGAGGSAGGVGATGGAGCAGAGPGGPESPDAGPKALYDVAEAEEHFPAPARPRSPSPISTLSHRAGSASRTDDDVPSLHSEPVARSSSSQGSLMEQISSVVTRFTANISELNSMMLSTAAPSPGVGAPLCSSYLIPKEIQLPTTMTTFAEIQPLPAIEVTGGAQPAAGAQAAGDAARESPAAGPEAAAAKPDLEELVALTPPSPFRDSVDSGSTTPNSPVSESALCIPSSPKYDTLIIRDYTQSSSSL
# rat mGluR1a, sequence (P23385 19-1199): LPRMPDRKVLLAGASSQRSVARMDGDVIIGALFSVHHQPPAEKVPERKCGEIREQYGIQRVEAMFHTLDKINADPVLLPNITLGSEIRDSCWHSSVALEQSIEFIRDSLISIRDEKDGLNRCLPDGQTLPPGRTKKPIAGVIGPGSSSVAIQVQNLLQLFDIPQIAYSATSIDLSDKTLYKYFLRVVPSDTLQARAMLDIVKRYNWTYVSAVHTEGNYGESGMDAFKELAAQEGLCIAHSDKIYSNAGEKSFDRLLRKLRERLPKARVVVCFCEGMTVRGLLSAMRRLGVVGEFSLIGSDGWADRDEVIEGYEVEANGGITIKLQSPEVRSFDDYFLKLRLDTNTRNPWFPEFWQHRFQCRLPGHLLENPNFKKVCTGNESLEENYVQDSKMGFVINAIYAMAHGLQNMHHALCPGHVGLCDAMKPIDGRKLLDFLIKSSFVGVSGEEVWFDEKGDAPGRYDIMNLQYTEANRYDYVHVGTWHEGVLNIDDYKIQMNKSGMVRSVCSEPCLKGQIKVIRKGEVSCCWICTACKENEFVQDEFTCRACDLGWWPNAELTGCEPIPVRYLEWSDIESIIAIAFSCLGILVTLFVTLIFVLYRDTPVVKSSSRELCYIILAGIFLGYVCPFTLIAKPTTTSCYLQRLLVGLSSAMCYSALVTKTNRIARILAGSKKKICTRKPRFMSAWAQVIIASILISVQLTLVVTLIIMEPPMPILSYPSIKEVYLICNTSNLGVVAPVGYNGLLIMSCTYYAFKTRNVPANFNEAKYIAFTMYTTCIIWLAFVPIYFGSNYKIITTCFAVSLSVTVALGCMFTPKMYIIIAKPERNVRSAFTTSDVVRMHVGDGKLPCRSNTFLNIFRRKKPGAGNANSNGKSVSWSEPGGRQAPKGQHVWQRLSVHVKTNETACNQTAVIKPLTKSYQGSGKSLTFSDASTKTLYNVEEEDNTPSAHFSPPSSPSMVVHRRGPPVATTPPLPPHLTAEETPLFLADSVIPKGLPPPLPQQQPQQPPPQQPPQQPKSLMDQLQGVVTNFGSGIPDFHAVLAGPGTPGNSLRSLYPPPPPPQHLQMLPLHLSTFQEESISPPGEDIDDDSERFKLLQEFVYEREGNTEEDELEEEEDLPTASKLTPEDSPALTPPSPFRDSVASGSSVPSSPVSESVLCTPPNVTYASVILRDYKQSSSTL
# rat mGluR4a, sequence (P31423 33-912): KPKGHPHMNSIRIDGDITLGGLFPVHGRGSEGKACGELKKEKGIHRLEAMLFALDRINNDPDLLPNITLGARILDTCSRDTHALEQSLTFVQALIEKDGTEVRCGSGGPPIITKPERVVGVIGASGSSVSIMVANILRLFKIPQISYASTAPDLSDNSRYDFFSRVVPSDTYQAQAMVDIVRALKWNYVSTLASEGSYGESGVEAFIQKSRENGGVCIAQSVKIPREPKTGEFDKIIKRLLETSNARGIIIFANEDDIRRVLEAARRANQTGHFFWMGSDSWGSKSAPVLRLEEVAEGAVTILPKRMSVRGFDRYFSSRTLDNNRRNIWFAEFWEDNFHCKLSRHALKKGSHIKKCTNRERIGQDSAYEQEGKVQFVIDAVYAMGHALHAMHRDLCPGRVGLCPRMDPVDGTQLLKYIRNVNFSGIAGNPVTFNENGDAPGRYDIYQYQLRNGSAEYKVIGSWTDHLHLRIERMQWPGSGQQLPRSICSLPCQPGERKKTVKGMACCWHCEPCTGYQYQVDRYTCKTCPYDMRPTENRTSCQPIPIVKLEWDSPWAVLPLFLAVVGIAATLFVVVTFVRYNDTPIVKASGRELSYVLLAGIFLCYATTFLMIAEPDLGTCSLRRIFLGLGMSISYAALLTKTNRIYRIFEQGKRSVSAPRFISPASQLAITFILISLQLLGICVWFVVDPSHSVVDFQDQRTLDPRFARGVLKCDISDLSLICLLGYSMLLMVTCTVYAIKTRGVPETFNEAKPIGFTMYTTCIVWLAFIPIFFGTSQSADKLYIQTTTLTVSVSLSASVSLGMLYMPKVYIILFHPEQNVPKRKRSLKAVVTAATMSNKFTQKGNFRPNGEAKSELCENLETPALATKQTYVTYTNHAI
# rat mGluR2, sequence (P31421 19-872): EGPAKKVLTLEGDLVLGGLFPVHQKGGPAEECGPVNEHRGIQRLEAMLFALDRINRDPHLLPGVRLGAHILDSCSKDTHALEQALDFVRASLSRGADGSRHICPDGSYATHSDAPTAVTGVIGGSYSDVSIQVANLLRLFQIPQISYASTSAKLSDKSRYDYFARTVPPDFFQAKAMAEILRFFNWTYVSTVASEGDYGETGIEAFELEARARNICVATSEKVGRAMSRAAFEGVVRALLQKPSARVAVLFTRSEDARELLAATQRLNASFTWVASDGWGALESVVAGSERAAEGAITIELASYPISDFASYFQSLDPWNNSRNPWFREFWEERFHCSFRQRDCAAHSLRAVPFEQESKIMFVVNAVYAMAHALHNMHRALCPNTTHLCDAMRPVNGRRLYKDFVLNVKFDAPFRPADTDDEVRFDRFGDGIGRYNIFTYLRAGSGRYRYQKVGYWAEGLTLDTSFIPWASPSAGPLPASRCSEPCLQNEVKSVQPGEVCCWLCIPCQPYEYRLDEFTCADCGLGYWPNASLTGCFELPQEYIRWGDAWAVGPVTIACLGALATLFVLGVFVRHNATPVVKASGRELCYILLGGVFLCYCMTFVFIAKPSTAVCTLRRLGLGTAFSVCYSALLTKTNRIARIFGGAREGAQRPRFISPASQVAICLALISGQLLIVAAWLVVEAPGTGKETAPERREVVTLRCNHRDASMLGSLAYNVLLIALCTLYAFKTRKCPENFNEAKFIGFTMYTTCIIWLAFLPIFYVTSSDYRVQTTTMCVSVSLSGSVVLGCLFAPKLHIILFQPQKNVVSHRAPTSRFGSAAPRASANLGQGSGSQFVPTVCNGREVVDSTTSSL
# rat mGluR8a, sequence (P70579 34-908): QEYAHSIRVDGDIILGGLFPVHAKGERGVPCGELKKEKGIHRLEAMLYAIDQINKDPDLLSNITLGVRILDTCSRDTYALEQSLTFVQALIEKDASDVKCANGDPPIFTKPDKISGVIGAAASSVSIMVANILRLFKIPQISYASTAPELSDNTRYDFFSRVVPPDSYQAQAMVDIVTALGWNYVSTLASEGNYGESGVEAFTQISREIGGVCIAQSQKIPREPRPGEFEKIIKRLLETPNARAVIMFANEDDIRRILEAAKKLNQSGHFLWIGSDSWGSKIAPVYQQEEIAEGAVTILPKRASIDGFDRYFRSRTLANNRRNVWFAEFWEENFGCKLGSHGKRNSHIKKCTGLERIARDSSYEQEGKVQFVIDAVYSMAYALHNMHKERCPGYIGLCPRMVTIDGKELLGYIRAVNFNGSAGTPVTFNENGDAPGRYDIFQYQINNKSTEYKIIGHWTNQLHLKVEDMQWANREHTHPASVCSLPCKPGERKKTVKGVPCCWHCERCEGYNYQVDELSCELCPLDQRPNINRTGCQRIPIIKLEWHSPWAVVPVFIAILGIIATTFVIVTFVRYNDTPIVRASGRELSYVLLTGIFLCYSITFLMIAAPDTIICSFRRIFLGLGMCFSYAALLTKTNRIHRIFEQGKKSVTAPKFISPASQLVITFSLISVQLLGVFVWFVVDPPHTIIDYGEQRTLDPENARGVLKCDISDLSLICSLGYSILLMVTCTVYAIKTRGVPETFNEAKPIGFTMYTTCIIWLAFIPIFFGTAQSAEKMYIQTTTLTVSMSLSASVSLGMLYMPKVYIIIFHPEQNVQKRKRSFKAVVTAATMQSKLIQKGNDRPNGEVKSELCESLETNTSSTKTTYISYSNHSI
structure (smiles),measurement,setting,value
COc1ccc(C[C@H]2NC[C@H](O)[C@H]2OC(C)=O)cc1 [anisomycin],effect on mGluR activation of APP translation,APP translation in SN,blocked
CN1CC(=O)N=C1NC(=O)Nc1cccc(Cl)c1.O=S(=O)(O)O [fenobam],premature death,"[1]; Tg2576 mice, 0.2 g fenobam per kg diet, chronic dosing",no incidences of premature death
same,adverse side effects,"[1]; mouse, in vivo",No adverse side effects
same,weight gain,"[1]; mouse, in vivo",normal weight gain
same,mouse Aβ1-42 levels,"[2]; Tg2576, fenobam diet",no change
same,mouse Aβ1-40 level in brain,[2]; Tg2576 males on fenobam food,60 ng/mL/µg
same,"human Aβ levels, control vs fenobam-fed","[2]; Tg2576 mice, 0.2 g fenobam per kg diet",No change
same,decrease in mouse Aβ1-40 levels,"[2]; male Tg2576, 0.2 g fenobam per kg diet",11.5 fold
same,activity toward rat mGluR1a,rat mGluR1a,no activity
same,effect on anxiety,anxiety in humans,reduces anxiety
same,activity toward rat mGluR4a,rat mGluR4a,no activity
same,activity toward rat mGluR2,rat mGluR2,no activity
same,% Death,[3]; DS (Ts65Dn) mice,0%
same,% WR,[3]; DS (Ts65Dn) mice,58%
same,% AGS,"[3]; DS (Ts65Dn) mice, listed as Fenobaum",0%
same,% AGS,"[3]; DS (Ts65Dn) mice, listed as fenobaum",attenuates seizures
same,% AGS,[3]; WT littermates of DS model,0%
same,% Death,[3]; WT littermates of DS model,0%
same,% WR,[3]; WT littermates of DS model,0%
same,decrease in Aβ1-42 in the cortex,[4]; fenobam food 1 month,40%
same,Aβ1-42 in hippocampus and cortex,[4]; fenobam food 2 months,modest reductions
same,decrease in Aβ1-40 in cerebellum,[4]; fenobam food 2 months,19%
same,decrease in Aβ1-40 in cortex,[4]; fenobam food 2 months,26%
same,reduction in Aβ1-42 in the cerebellum,[4]; fenobam food 2 months,4.2 fold
same,side effects,[5]; therapeutically-effective dosages,no harmful side effects
same,"side effects in one study (Friedmann et al., 1980)",[5],psycho-stimulating properties
same,mGluR5 antagonist character,mGluR5,potent and highly selective noncompetitive antagonists
same,activity toward rat mGluR7a,rat mGluR7a,no activity
same,effect on anxiety,anxiety in rats,reduces anxiety
same,activity toward rat mGluR8a,rat mGluR8a,no activity
same,effect on anxiety,anxiety in mice,reduces anxiety
